Source: paper PMC11087268, “A folate inhibitor exploits metabolic differences in Pseudomonas aeruginosa for narrow-spectrum targeting” (Nature Microbiology, 2024)

Tests used:
E. faecalis = assay: Growth with or without TMI supplementation and fluorofolin, E. faecalis; type: cell-based, Enterococcus faecalis; details: fluorofolin 2X MIC
Method: Where listed, growth media were prepared according manufacturer recommendations: LB broth and LB broth supplemented with 0.3 mM thymine (BD Biosciences 244610, Alfa Aesar A15879), 0.3 mM methionine (Sigma-Aldrich M9625), 0.3 mM inosine (EMD Millipore 4060), cation-adjusted Mueller–Hinton II broth (CAMHB) (BD 212322) or 0.3 mM thymidine (Sigma-Aldrich T1895), Gutnick minimal media (1.0 g l^−1 K2SO4, 13.5 g l^−1 K2HPO4, 4.7 g l^−1 KH2PO4, 0.1 g l^−1 MgSO4·7H2O, 10 mM NH4Cl as a nitrogen source and 0.4% w/v glucose as a carbon source)[65].
Extended Data Fig. 3 TMI supplementation can also rescue other species from fluorofolin DHFR inhibition. […] (f) P. aeruginosa PA14 or E. coli lptd4213 treated with fluorofolin 50 μg/mL in the presence or absence of 0.3 mM thymidine. (g) E. coli lptd4213 treated with fluorofolin 50 μg/mL and SMX (78.1 μg/mL) in the presence or absence of 0.3 mM thymidine or 0.3 mM TMI supplementation, Curves represent average optical at 600 nm (OD600) of 2 biological replicates. Means are shown. Source data

[1] = test system: Pseudomonas aeruginosa PA14; assay: MIC against P. aeruginosa PA14 in LB broth; type: cell-based
Method: (§1) Overnight cultures were diluted 1:150 in LB broth and added to a 96-well plate. Antibiotics were serially diluted 1:2 and added to columns of the 96-well plate and grown at 37 °C with continuous shaking. Cell growth was measured using optical density at 600 nm (OD600). MIC assays were performed in either BioTek Synergy HT or Tecan InfiniteM200 Pro microplate readers.

[2] = test system: P. aeruginosa PA14 mexS L46F mutant; assay: MIC against fluorofolin-resistant PA14 mexS L46F mutant; type: cell-based; details: Pseudomonas aeruginosa
Method: as §1
Single colonies were picked and inoculated into fresh LB broth. This process was repeated for a total of ten passages. At each passage, the MIC was recalculated and compared to a culture that had not been previously exposed to fluorofolin, which was also grown as a control to confirm antibiotic potency. Cells from each passage were stored as a frozen stock.

PA14 = assay: Checkerboard assay fluorofolin / sulfamethoxazole; type: cell-based, Pseudomonas aeruginosa; details: for FIC index: PA14, SMX 0.000 ug/mL
Method: Cells were seeded in a similar manner as described above for MIC calculations. […] Fractional inhibitory concentrations (FICs) were calculated as [[…], where [fluorofolin] and [SMX] are the concentrations of compounds in a given well, which were divided by the concentration of drug at the MIC for each compound.

Compound: Nc1nc(N)c2c(ccc3c2ccn3Cc2ccnc(F)c2)n1 [fluorofolin]
- rescue of growth inhibition by TMI supplementation (E. faecalis): could also be rescued from fluorofolin growth inhibition by TMI supplementation
- MIC ([1]; Pseudomonas aeruginosa, PA14): 3.1 µg/mL
- MIC ([1]; Pseudomonas aeruginosa, PA14, 16 h): 3.12 µg/mL
- MIC ([1]; Wildtype PA14, control for each drug stock): 3.1 µg/mL
- MIC [2]: 62.5 µg/mL
- FIC index (PA14; Fluorofolin 3.125 ug/mL): 1
- FIC index (PA14; Fluorofolin 6.25 ug/mL): 2
- FIC index (PA14; Fluorofolin 12.5 ug/mL): 4
- FIC index (PA14; Fluorofolin 25 ug/mL): 8
- MIC (PA14; Pseudomonas aeruginosa, PA14, read-out: MIC of fluorofolin in the presence of SMX): 0.4 µg/mL
